Columns and labels:
[1] = Intestinal stability, human intestinal S9; format: in vitro ADME
Description: The stability of compounds 1 and 2, and the control compound 7-hydroxycoumarin, were measured using human, rat, and mouse intestinal S9 fractions (Xenotech). Test compound working solutions were prepared by diluting 5 μL of 10 mM stock solutions in DMSO with 495 μL AN. S9 solutions were prepared by diluting the obtained S9 solutions to 1.0 mg/mL in 100 mM potassium phosphate buffer at pH 7.4 containing 10 mM D-saccharic acid-1,4-lactone. An Apricot automation workstation was used to add 100 μL/well of S9 solution to all reaction plates (Blank, T0, T5, T15, T30, T45, T60 and NCF60); 2 μL/well of compound working solutions were added to all 96-well reaction plates except the blank (T0, T5, T15, T30, T45, T60, and NCF60); 600 μL/well of stop solution (4° C. ACN containing 200 ng/mL tolbutamide and 200 ng/mL labetalol as internal standards) was added to the T0 reaction plate; all plates were pre-incubated at 37° C. for 10 minutes; a cofactor regenerating system (98 μL/well) was added, excluding the NCF60 plate which instead received 98 μL/well of 100 mM potassium phosphate buffer. All plates were then incubated at 37° C. To terminate reactions, 600 μL/well of stop solution was applied at specific end time points. After sealing and a 10-minute shaking, plates were centrifuged at 4000 rpm and 4° C. for 20 minutes. Concurrently, 300 μL/well of HPLC grade water was loaded onto eight new 96-well bioanalysis plates. Post-centrifugation, 100 μL supernatant from each reaction plate was transferred to its corresponding bioanalysis plate, shaken for 10 minutes, and then subjected to LC-MS/MS analysis (Shimadzu LC-40D LC system coupled to a Sciex Qtrap 6500 Plus mass spectrometer, using both positive and negative ion modes).

[2] = system: mice with cerulein-induced acute edematous pancreatitis; assay: Cerulein model of acute edematous pancreatitis; format: in vivo, mouse; conditions: 100 mg/Kg by gavage 30 minutes after first and fourth cerulein injections; initial findings
Description: Using the cerulein model, acute edematous pancreatitis was induced in two test groups of mice by eight hourly intraperitoneal injections of 50 μg/Kg cerulein, with control group mice receiving injections of physiological saline. Compound 2, at 100 mg/Kg, was administered to one of the cerulein groups by gavage 30 minutes after the first and fourth cerulein injections. Mice were sacrificed one hour after the last injection and tissues were collected for histological analysis. […] Recurrent acute pancreatitis (RAP) and chronic pancreatitis (CP) were induced by repetitive cerulein injections every third day over a span of 14 days (RAP) or 6 weeks (CP). Compound 2 was administered daily at 50 mg/Kg on the last 10 consecutive days for RAP and at 100 mg/Kg on the last 4 weeks for CP, with vehicle controls. Mice were sacrificed 1 day after the last cerulein injection and tissues were collected for histological analysis. In the CP model, the cerulein injections induced extensive acinar cell damage.

O=c1c(-c2ccc(O)cc2)coc2cc(OCOP(=O)(O)O)cc(O)c12 [Compound 2, ((5-Hydroxy-3-(4-hydroxyphenyl)-4-oxo-4H-chromen-7-yl)oxy)methyl dihydrogen phosphate]
normalized control factor remaining [1]: 56.6% | half-life at 1 µM ([1]; intestinal S9 fraction, pH 7.4): 26.8 min | microsomal CLint at 1 µM ([1]; intestinal S9 fraction, pH 7.4, read-out: intrinsic clearance rate): 51.7 µL/min/mg | acute edematous pancreatitis marked by necrosis, inflammation and edema in the pancreas (histology) [2]: efficacious in reversing

Source: US20250170154A1 (GreenStone Biosciences, Inc., priority 2023, published 2025)
